Patent US20080108611A1, “SUBSTITUTED THIENOPYRIMIDINE KINASE INHIBITORS” (priority 2006, published 2008)
pIC50: −log10 of the molar value.

Columns and labels:
Lyn kinase = target: T1, Lyn kinase (Homo sapiens, UniProt P07948); test: Lyn Kinase Assay; format: biochemical; settings: test concentration of 2 μM; read-out: Lyn Inhibition (%) Inh
T1 construct: purchased Upstate Biotechnology, Lake Placid, N.Y
Method: A mixture of a 10× kinase buffer (500 mM MOPS at pH 7.5, 1 mM EGTA, 1 mM Sodium Vanadate, 1% β-mercaptoethanol and 100 mM Magnesium Acetate), ATP (5 μM final from a 10 mM stock), polyGluTyr (0.1 mg/mL final from a 1 mg/mL stock), γ-^33P ATP (10 μCi/μL stock) and water (20 μL/well) was added to each well of a Streptavidin Flashplate.
Test compound in 100% DMSO (0.5 μL) was added to the appropriate wells. Diluted Lyn kinase (human) (Upstate Biotechnology, Lake Placid, N.Y.) (diluted in a buffer consisting of 50 mM Tris at pH 7.5, 0.1 mM EGTA, Sodium Vanadate (0.1 mM), 13-mercaptoethanol (0.1%) and 1 mg/mL bovine serum albumin) (2.5 μL) was added to the wells to initiate the reactions.
The reaction plates were incubated at 30° C. for 40 min. The reaction was terminated by the addition of a 3% phosphoric acid solution (5 μL). The reaction product (10 μL) was spotted onto a P30 filtermat and washed for 5 minutes in phosphoric acid (75 mM). The wash sequence was repeated two more times, followed with one final wash in methanol. The plates were then dried, sealed and read on the TopCount scintillation counter after adding 30 μL scintillation fluid. Percent inhibition was derived according to the procedure described in Example 1. The percent inhibition results are shown in Table 4 at a test concentration of 2 μM.

Aurora-A = target: T2, Aurora-A (Mus musculus, UniProt P97477); test: Aurora-A Screening Assay; format: biochemical; settings: murine Aurora-A full length, 10 μM ATP
T2 construct: followed by the full length protein encoding the murine Aurora-A; polyhistidine (N); made in house; host or cells: Sf9 insect cells
T2 sequence (P97477 1-395): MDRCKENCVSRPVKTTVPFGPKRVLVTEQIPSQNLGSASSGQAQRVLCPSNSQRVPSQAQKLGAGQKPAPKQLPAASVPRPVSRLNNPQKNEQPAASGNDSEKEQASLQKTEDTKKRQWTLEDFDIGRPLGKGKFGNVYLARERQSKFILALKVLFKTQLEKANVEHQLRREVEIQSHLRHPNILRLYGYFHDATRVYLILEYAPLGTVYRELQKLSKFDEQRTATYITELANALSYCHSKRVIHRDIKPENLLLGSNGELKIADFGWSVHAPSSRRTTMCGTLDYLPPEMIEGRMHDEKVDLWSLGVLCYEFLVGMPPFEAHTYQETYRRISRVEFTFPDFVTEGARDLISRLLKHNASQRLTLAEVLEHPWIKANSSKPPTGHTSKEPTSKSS
Method: (§1) A kinase reaction mixture was prepared containing 50 mM Tris-HCl at pH 8, 10 mM MgCl2, 0.1 mM Na3PO4, 1 mM DTT, 10 μM ATP, 0.025 μM biotinylated histone-H1 peptide substrate and 0.2 μCuries per well ^33P-γ-ATP (2000-3000 Ci/mmol). 70 μL of the kinase reaction mixture was dispensed into the well of a Streptavidin FlashPlate.
(§2) Test compound stock in 100% DMSO (1 μL) was added to the wells resulting in a final concentration of 1% DMSO in the reaction with a 100 μL final reaction volume. Each enzyme was diluted in 50 mM Tris-HCl pH=8.0, 0.1% BSA and 30 μL was added to each well to initiate the reaction. The reaction was incubated for one hour at 30° C. At the end of the 1 hr incubation, the reaction was terminated by aspirating the mixture from the plate and washing the wells twice with PBS containing 100 mM EDTA. The biotinylated peptide substrate became immobilized on the Flashplate™ and the incorporation of ^33P-γ-ATP was measured by reading the plate on a scintillation counter. Inhibition of the enzymatic activity was measured by observing a reduced amount of ^33P-γ-ATP incorporated into the immobilized peptide.
Aurora-A is a fusion protein containing a polyhistidine tag at the N terminus followed by the full length protein encoding the murine Aurora-A (Accession number GB BC014711) expressed and purified from sf9 insect cells. The assay used 400 ng of the N-terminal biotinylated peptide biotin-GRTGRRNSI-amide (Aurora-A) per well.
(§3) The IC50 was derived according to the procedure described in Example 1.

[1] = test system: HeLa cervical adenocarcinoma; test: Cell Proliferation Inhibition Assay (14C-thymidine incorporation), HeLa; format: cell-based; settings: Homo sapiens; HeLa cells
Method: The ability of a test compound to inhibit unregulated cell proliferation was determined by measuring incorporation of ^14C-labelled thymidine into newly synthesized DNA within cell lines derived from carcinomas originating from several tissues. Accordingly, the anti-proliferative effect of a compound on cells with a variety of phenotypes may be determined.
Carcinoma cell lines include those such as HeLa cervical adenocarcinoma (American Type Culture Collection (ATCC), Virginia, Cat. #CCL-2), A375 malignant melanoma (ATCC CRL-1619), SK-OV-3 ovarian adenocarcinoma (ATCC HTB-77), HCT-116 colon carcinoma (CCL-247), PC-3 prostate adenocarcinoma (ATCC CRL-1435), and MDA-MB-231 (Xenogen Corp.)
The carcinoma cells were trypsinized and counted. The cells (3000-8000 count) were added to each well of a 96-well CytoStar tissue culture treated scintillating microplate (Amersham #RPNQ0160) in complete medium (100 μL) and the plate was then incubated in complete medium for 24 hrs at 37° C. in an […] atmosphere containing 5% CO2. Test compound (1 μL) in 100% DMSO was added to the plate test-wells with DMSO only added to control-wells. The plate was incubated in complete medium for a second 24 hr period at 37° C. in an atmosphere containing 5% CO2.
An aliquot of a solution of methyl ^14C-thymidine (56 mC/mmol) (NEN #NEC568 or Amersham #CFA532) and complete medium (20 uL to provide 0.2 μCi/well) was then added to each well and the plate was incubated for a third 24 hr period at 37° C. in an atmosphere containing 5% CO2. The plate contents were then discarded, the plate was washed twice with PBS (200 μL) and then PBS (200 μL) was added to each well. The plate was sealed and the degree of methyl ^14C-thymidine incorporation was quantified on a Packard Top Count.

VEGF-R2 = target: T3, VEGF-R2 (Rattus norvegicus, UniProt O08775); test: VEGF-R2 Screening Assay; format: biochemical; settings: rat VEGF-R2 kinase domain, 10 μM ATP
T3 construct: polyhistidine (N)
Method: as §1, §2
The VEGF-R2 enzyme is a fusion protein containing a polyhistidine tag at the N terminus followed by amino acids 786 to 1343 of the rat VEGF-R2 kinase domain (Accession number U93306). The assay used 150 ng of the N-terminal biotinylated peptide biotin-KHKKLAEGSAYEEV-amide (VEGF-R2) per well.
as §3

T1 sequence (P07948 whole entry): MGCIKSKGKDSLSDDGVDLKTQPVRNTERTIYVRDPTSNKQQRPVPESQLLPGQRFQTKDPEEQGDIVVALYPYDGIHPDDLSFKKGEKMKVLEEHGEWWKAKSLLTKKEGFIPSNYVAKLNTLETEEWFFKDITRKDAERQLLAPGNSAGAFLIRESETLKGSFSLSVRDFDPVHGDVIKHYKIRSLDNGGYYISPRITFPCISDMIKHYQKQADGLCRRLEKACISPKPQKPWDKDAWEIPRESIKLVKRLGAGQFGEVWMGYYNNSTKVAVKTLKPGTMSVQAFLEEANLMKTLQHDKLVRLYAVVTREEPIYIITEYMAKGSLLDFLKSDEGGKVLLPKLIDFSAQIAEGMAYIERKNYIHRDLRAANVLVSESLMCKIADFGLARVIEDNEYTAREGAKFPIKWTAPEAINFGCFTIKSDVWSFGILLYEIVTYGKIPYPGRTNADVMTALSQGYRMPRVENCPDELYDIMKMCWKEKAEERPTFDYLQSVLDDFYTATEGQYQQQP
T3 sequence (O08775 786-1343): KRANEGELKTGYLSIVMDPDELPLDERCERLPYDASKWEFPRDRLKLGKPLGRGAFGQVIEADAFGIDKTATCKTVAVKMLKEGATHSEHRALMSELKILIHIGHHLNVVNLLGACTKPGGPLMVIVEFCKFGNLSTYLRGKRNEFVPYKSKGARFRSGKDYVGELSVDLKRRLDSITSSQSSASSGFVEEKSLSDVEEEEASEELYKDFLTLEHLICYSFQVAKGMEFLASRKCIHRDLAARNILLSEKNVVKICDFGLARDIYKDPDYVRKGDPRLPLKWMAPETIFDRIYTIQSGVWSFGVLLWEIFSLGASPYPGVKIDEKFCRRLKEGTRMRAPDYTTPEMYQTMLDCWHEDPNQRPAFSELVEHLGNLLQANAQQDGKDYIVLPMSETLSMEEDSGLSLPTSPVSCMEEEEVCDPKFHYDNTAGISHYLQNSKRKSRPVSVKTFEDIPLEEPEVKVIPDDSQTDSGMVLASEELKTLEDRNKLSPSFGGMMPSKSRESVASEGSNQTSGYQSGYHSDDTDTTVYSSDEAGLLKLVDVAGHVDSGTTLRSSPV

SMILES	inhibition at 2 µM (Lyn kinase)	pIC50 (Aurora-A)	pIC50 [1]	pIC50 (VEGF-R2)
Cc1cc2c(F)c(Oc3ncnc4sc(C(=O)Nc5ccc(CN6CCOCC6)cc5)c(C)c34)ccc2[nH]1 [Cpd 20, 4-(4-fluoro-2-methyl-1H-indol-5-yloxy)-5-methyl-thieno[2,3-d]pyrimidine-6-carboxylic acid (4-morpholin-4-ylmethyl-phenyl)-amide]	20%	< 4.00	< 5.00	6.12
Cc1cc2c(F)c(Oc3ncnc4sc(C(=O)NCCN5CCCCC5)c(C)c34)ccc2[nH]1 [Cpd 21, 4-(4-fluoro-2-methyl-1H-indol-5-yloxy)-5-methyl-thieno[2,3-d]pyrimidine-6-carboxylic acid (2-piperidin-1-yl-ethyl)-amide]	8%	< 4.00	5.07	6.41
Cc1c(C(=O)NCCN2CCOCC2)sc2ncnc(Nc3ccc(Oc4ccccc4)cc3)c12 [Cpd 24]	23%	< 4.00	< 4.00	~4.00
COCCNC(=O)c1sc2ncnc(Oc3ccc4[nH]c(C)cc4c3F)c2c1C [Cpd 27, 4-(4-fluoro-2-methyl-1H-indol-5-yloxy)-5-methyl-thieno[2,3-d]pyrimidine-6-carboxylic acid (2-methoxy-ethyl)-amide]	23%	< 5.00	< 5.00	6.42

Now from value to compound:

inhibition at 2 µM (Lyn kinase)	pIC50 (Aurora-A)	pIC50 [1]	pIC50 (VEGF-R2)	SMILES
16%	< 4.00	< 5.00	6.61	Cc1cc2c(F)c(Oc3ncnc4sc(C(=O)NCCN5CCOCC5)c(C)c34)ccc2[nH]1 [Cpd 19, 4-(4-fluoro-2-methyl-1H-indol-5-yloxy)-5-methyl-thieno[2,3-d]pyrimidine-6-carboxylic acid (2-morpholin-4-yl-ethyl)-amide]
-2%	< 4.00	4.82	6.21	Cc1cc2c(F)c(Oc3ncnc4sc(C(=O)NCCN5CCCC5)c(C)c34)ccc2[nH]1 [Cpd 22, 4-(4-fluoro-2-methyl-1H-indol-5-yloxy)-5-methyl-thieno[2,3-d]pyrimidine-6-carboxylic acid (2-pyrrolidin-1-yl-ethyl)-amide]
9%	< 4.00	< 5.00	< 4.00	Cc1c(C(=O)Nc2ccc(CN3CCOCC3)cc2)sc2ncnc(Nc3ccc(Oc4ccccc4)cc3)c12 [Cpd 23, 5-methyl-4-(4-phenoxy-phenylamino)-thieno[2,3-d]pyrimidine-6-carboxylic acid (4-morpholin-4-ylmethyl-phenyl)-amide]
